Patent US4259257A, “1-Phenyl-2-amino-1,3-propanediol-N-aryloxyalkyl derivatives” (Egyt Gyogyszervegyeszeti Gyar, priority 1977, dated 1981)
Counter-ions that a name gives are not always drawn. Like-named read-outs stand apart in the source and are kept apart here.

Legend:
isolated rat ileums = assay: Smooth muscle relaxing activity by the method of Brock et al. on isolated rat ileums; conditions: for Smooth muscle relaxant activity EC50: isolated rat ileums; for Smooth muscle relaxant activity, relative efficiency: related to Papaverine (1.0)
Source text: For the determination of smooth muscle relaxing activity the method of Brock et al. (Brock, N, et al., Arch. Exper. Pathol. u. Pharmacol., 215, 492/1952/) was used on isolated rat ileums. Papaverine was used as reference compound. In Table 4 below the EC50 -values and the relative efficiencies calculated on the basis of the following equation are also listed: [formula]

in vivo = conditions: rat, iv, read-out: LD50-value (acute intravenous toxicity)
Experimental: The acute intravenous toxicity was determined on rats of both sexes, using five animals for each doses. The relative anti-anginose activity was calculated on the basis of the following equation: [formula]

[1] = Acute oral toxicity on mice (CFLP strain), 96 h observation; conditions: mouse, in vivo
Experimental: Toxicity (per os) has been determined on mice (CFLP strain) of both sexes weighing about 20 to 25 g. each, 10 mice were used for each doses and the time of observation was 96 hours.

[2] = system: coronary insufficiency induced with glanduitrine in male rats (CFY strain); assay: Anti-anginose activity by the method of Nieschulz, coronary insufficiency induced with glanduitrine; assay type: in vivo; conditions: for Relative efficiency (relative anti-anginose activity): inhibition caused by Prenilamine=1; for Anti-anginose effect (inhibition %): rats, test dose 10.0 mg./kg. (compound 1), 2.0 mg./kg. (2, 3, Prenilamine), 4.0 mg./kg. (5, Lidocaine)
Experimental: Anti-anginose activity of the compounds according to the invention was tested on male rats from the CFY strain by the method of Nieschulz (Nieschulz, E. et al., Arzneimittelforschung, 5, 680/1955/). The rats weighed about 180 to 220 g. each and were narcotized prior to treatment. Electrocardiograms were registered by means of a NEK-2 ECG-instrument using a standard II output. The coronary insufficiency was induced with a 4 IE/kg. i.v. dose of glanduitrine. Prenilamine was used as a reference compound.
The acute intravenous toxicity was determined on rats of both sexes, using five animals for each doses. The relative anti-anginose activity was calculated on the basis of the following equation: [formula] Test results are shown in Table 3 below (inhibition caused by Prenilamine=1).

N. ischiadicus of rats = assay: Local anaesthetic activity by the method of Truant and d'Amato; assay type: in vivo; conditions: for Local anaesthetic activity EC50: N. ischiadicus of rats, motor-paralysis; for Local anaesthetic activity, relative efficiency: related to Lidocaine (1.0)
Experimental: The local anaesthetic activity was tested by the method of Truant and d'Amato (Truant, A. P. and Wiedling, S., Acta Chirurg. Scand. 116, 351/1958) on the N. ischiadicus of rats. The number of the animals showing the signs of characteristic motor-paralysis was recorded. As a control compound Lidocaine was used. This test can be carried out with water-soluble substances only.

Compound	Smooth muscle relaxant activity EC50 (isolated rat ileums) [µg/mL]	Smooth muscle relaxant activity, relative efficiency (isolated rat ileums)	LD50 (in vivo) [mg/kg]	LD50 at 96 h [1] [mg/kg]	Relative efficiency (relative anti-anginose activity) [2]	Anti-anginose effect (inhibition %) [2] [%]	Local anaesthetic activity EC50 (N. ischiadicus of rats) [µg/mL]	Local anaesthetic activity, relative efficiency (N. ischiadicus of rats)	LD50 (in vivo; rats, i.v.) [mg/kg]
COc1ccc(Cc2nccc3cc(OC)c(OC)cc23)cc1OC [Papaverine, reference compound]	8.78	1.0							
CC(COc1ccccc1)N[C@@H](CO)[C@H](O)c1ccccc1 (stereo partly drawn) [Compound 5, Erythro+alloerythro-1-phenyl-2-phenoxyisopropylamino-1,3-propanediol fumarate]			45	2000	3.0	64			
CC(COc1ccccc1)N[C@H](CO)[C@H](O)c1ccccc1 (single isomer, unassigned; (-)) [Compound 4, (-) (Threo + allothreo)-1-phenyl-2-phenoxy-isopropylamino-1,3-propanediol fumarate]	10.78	0.80		275			0.28	0.68	
CCN(CC)CC(=O)Nc1c(C)cccc1C [Lidocaine, reference compound]						39	0.19		
CC(C)N[C@@H](CO)[C@@H](O)c1ccccc1 [Compound 1, L (+) threo-1-phenyl-2-isopropylamino-1,3-propanediol]			140	710	3.0	50			
CC(Cc1ccccc1)NCCC(c1ccccc1)c1ccccc1 (stereo not drawn) [Prenilamine, 3,3-diphenylpropyl-1-methylphenethylamine, reference compound]					1.0	41			11.5
CC(COc1ccccc1)N[C@@H](CO)[C@@H](O)c1ccccc1 (single isomer, unassigned; (+)) [Compound 3, (+) (Threo + allothreo)-1-phenyl-2-phenoxy-isopropylamino-1,3-propanediol fumarate]	8.50	1.03	21.5	350	3.0	67	0.20	0.95	
CC(COc1ccccc1)N[C@@H](CO)[C@@H](O)c1ccccc1 (relative stereo) [Compound 2, Threo + allothreo-1-phenyl-2-phenoxy-isopropylamino-1,3-propanediol fumarate]	17.57	0.50	11	200	1.3	56	0.12	1.58	
